# Assay results: patent US20150315241A1, “Antibiotic Peptides” (priority 2007, published 2015)
# Read-outs that look alike come from different tables or passages of the source. Where a SMILES comes first, the peptide text is derived from it. [ ]: non-standard residue; d: D form. Hyp = O=C(O)[C@@H]1C[C@@H](O)CN1; Orn = NCCC[C@H](N)C(=O)O
# Columns and labels:
# in vitro = in vitro ADME, mouse; settings: 25% aqueous mouse serum, 37° C.; read-out: Half-life time
# Method in brief: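 Peptide or peptidomimetic (0.5 mg/mL aqueous stock) incubated in 25% pooled mouse serum at 37 °C, sampled at 0–6 h, in duplicate. Proteins precipitated with 15% TCA; supernatants neutralized and analyzed by RP-HPLC with 0.1% TFA. Degradation products identified by MALDI-TOF/TOF-MS.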
# E. coli 45849 = experiment: Growth inhibition assay (MIC); format: cell-based, Escherichia coli
# Method in brief: (§1)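 Two-fold serial broth microdilution in 1% TSB, final peptide 125 μg/mL down to 60 ng/mL. Inoculum from overnight nutrient-broth cultures adjusted to 5×10^6 CFU/mL. After 20 hrs at 37° C., growth was read as absorbance at 595 nm; triplicates, sterile water as negative control.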
# S. typhi S5 = format: cell-based, Salmonella typhi; settings: S5, 20 h
# Method in brief: as §1
# E. coli D31 = format: cell-based, Escherichia coli; settings: D31, 20 h
# Method in brief: as §1
# K. Pneumonia 123132 = experiment: Growth inhibition assay (MIC); format: cell-based, Klebsiella pneumoniae
# Method in brief: as §1
# [1] = system: K. Pneumonia K6, ATCC 700603; experiment: Growth inhibition assay (MIC); format: cell-based, Klebsiella pneumoniae; settings: multidrug resistant strain; 1% TSB, 37° C., 20 hrs
# Method in brief: as §1
# [2] = system: S. enterica subsp. Enterica serovar. typhi G10215 ATCC 700408; format: cell-based, Salmonella enterica; settings: ATCC 700408, 20 h
# Method in brief: as §1
# [3] = system: R. radiobatter ATCC 15955; experiment: Growth inhibition assay (MIC); format: cell-based, Rhizobium radiobacter
# Method in brief: as §1
# E. coli BL 21 AI = experiment: Growth inhibition assay (MIC); format: cell-based, Escherichia coli; settings: 1% TSB, 37° C., 20 hrs
# Method in brief: (§2)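 Peptides were serially diluted two-fold in 1% TSB, giving final concentrations from 125 μg/mL down to 60 ng/mL, and mixed with overnight bacterial culture adjusted to 5×10^6 CFU/mL in 1% TSB. After 20 hrs at 37 °C, growth was read as absorbance at 595 nm, in triplicate, with sterile water as negative control.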
# E. coli DC 2 = experiment: Growth inhibition assay (MIC); format: cell-based, Escherichia coli; settings: 1% TSB, 37° C., 20 hrs
# Method in brief: as §2
# M. luteus ATCC 10240 = format: cell-based, Micrococcus luteus
# Method in brief: as §2
# E. coli 1103 = format: cell-based, Escherichia coli
# Method in brief: as §2
# K. pneumonia 681 = format: cell-based, Klebsiella pneumoniae
# Method in brief: as §2
# Mycobacterium vaccae = format: cell-based
# Procedure: The minimal inhibition concentrations (MIC) of the apidaecin-derived peptides and peptide-derivatives were determined by a growth inhibition assay using a serial peptide dilution in sterilized round-bottom 96-well plates (polystyrene, U-bottom, Greiner Bio-One GmbH) with a final volume of 100 μL per well. The bacteria, e.g., E. coli BL21 A1, were grown in nutrient broth (NB, Carl Roth GmbH+Co. KG, Karlsruhe, Germany) at 37° C. over night. To each well of the 96-well plate, 50 μL of the overnight culture adjusted to 5×10^6 CFU/mL in 1% TSB were added. Lyophilized peptides and peptidomimetics were dissolved in 1% TSB (tryptic soy broth) or water to give a final concentration of 250 μg/mL. Fifty μL of the peptide or peptidomimetics solution were added to the first well of a row on the plate and mixed. Fifty μL of the first well containing the peptide solution were transferred to the second well, mixed and again 50 μL transferred to the next well and so on. Thereby, a two-fold dilution series was obtained starting at 250 μg/mL in the first well down to 120 ng/mL in the 12th well of a row giving a final peptide or peptidomimetics concentration from 125 μg/mL (well 1) to 60 ng/mL (well 12). Plates were incubated at 37° C. for 20 hrs. The absorbance was measured at 595 nm using a TECAN micro plate spectrophotometer (Tecan, Germany). All peptides and peptidomimetics were measured in triplicates. Sterilized water was used as a negative control.
# The bacteria strains were tested: • Eschericha coli 1103, 10233, BL 21 AI, DC 2, • Klebsiella pneumoniae 681, • Micrococcus luteus ATCC 10240, • Mycobacterium vaccae • Bactillus subtillis 347.
# B. subtilis 347 = format: cell-based, Bactillus subtillis
# Method in brief: as §2
# [4] = multidrug resistant strain, 1% TSB, 37° C., 20 hrs
Compound,MIC E. coli 45849 (E. coli 45849; [4]),MIC S. typhi S5 (S. typhi S5),MIC E. coli D31 (E. coli D31),MIC K. Pneumonia 123132 (K. Pneumonia 123132; [4]),"MIC K. Pneumonia K6, ATCC 700603 [1]","MIC R. radiobatter ATCC 15955 [3, 4]",MIC E. coli BL 21 AI (E. coli BL 21 AI),MIC E. coli DC 2 (E. coli DC 2),"MIC M. luteus ATCC 10240 (M. luteus ATCC 10240; ATCC 10240, 20 h)","MIC E. coli 1103 (E. coli 1103; 1103, 20 h)",MIC K. pneumonia 681 (K. pneumonia 681; 20 h),MIC Mycobacterium vaccae (Mycobacterium vaccae; 20 h),"MIC B. subtilis 347 (B. subtilis 347; 347, 20 h)",also measured
CC[C@H](C)[C@H](NC(=O)[C@H](Cc1ccc(O)cc1)NC(=O)[C@@H](NC(=O)[C@@H]1CCCN1C(=O)[C@H](CCCNC(=N)N)NC(=O)[C@H](CC(N)=O)NC(=O)[C@H](CC(N)=O)NC(=O)[C@H](CCCN)NC(C)=O)C(C)C)C(=O)N1CCC[C@H]1C(=O)N[C@@H](CCC(N)=O)C(=O)N1CCC[C@H]1C(=O)N[C@@H](CCCNC(=N)N)C(=O)N1CCC[C@H]1C(=O)N1CCC[C@H]1C(=O)N[C@@H](Cc1c[nH]cn1)C(=O)N1CCC[C@H]1C(=O)N[C@@H](CCCNC(=N)N)C(=O)N[C@@H](CC(C)C)C(N)=O [compound 7] (Ac-[Orn]NNRPVYIPQPRPPHPRL-NH2),1 mg/L,2 mg/L,4 to 8 mg/L,16 mg/L,64 mg/L,<0.16 mg/L,0.49 mg/L,3.9 mg/L,3.91 mg/L,1.95 mg/L,1.95 mg/L,125 mg/L,>125 mg/L,half-life at 0.061 mg/mL (in vitro): 15 min; MIC S. enterica subsp. Enterica serovar. typhi G10215 ATCC 700408 [2]: 0.5 to 1 mg/L
CC[C@H](C)[C@H](NC(=O)[C@H](Cc1ccc(O)cc1)NC(=O)[C@@H](NC(=O)[C@@H]1CCCN1C(=O)[C@H](CCCNC(=N)N)NC(=O)[C@H](CC(N)=O)NC(=O)[C@H](CC(N)=O)NC(=O)[C@@H](N)CCCN)C(C)C)C(=O)N1CCC[C@H]1C(=O)N[C@@H](CCC(N)=O)C(=O)N1CCC[C@H]1C(=O)N[C@@H](CCCNC(=N)N)C(=O)N1CCC[C@H]1C(=O)N1CCC[C@H]1C(=O)N[C@@H](Cc1c[nH]cn1)C(=O)N1CCC[C@H]1C(=O)N[C@@H](CCCNC(=N)N)C(=O)N[C@@H](CC(C)C)C(N)=O [compound 8] (H-[Orn]NNRPVYIPQPRPPHPRL-NH2),<0.25 mg/L,<0.5 mg/L,2 mg/L,1 mg/L,16 mg/L,<0.16 mg/L,0.24 mg/L,0.98 mg/L,7.84 mg/L,,1.95 mg/L,125 mg/L,>125 mg/L,half-life at 0.061 mg/mL (in vitro): 30 min; MIC S. enterica subsp. Enterica serovar. typhi G10215 ATCC 700408 [2]: <0.25 mg/L
CC[C@H](C)[C@H](NC(=O)[C@H](CCCNC(=N)N)NC(=O)[C@@H]1CCCN1C(=O)[C@H](Cc1c[nH]cn1)NC(=O)[C@@H]1CCCN1C(=O)[C@@H]1CCCN1C(=O)[C@H](CCCNC(=N)N)NC(=O)[C@@H]1CCCN1C(=O)[C@H](CCCN)NC(=O)[C@@H]1CCCN1C(=O)[C@@H](NC(=O)[C@H](Cc1ccc(O)cc1)NC(=O)[C@@H](NC(=O)[C@@H]1CCCN1C(=O)[C@H](CCCNC(=N)N)NC(=O)[C@H](CC(N)=O)NC(=O)[C@H](CC(N)=O)NC(=O)CN)C(C)C)[C@@H](C)CC)C(N)=O [compound 9] (H-GNNRPVYIP[Orn]PRPPHPRI-NH2),,2 mg/L,16 mg/L,,16 mg/L,,0.49 mg/L,1.95 mg/L,,,,,,"MIC E. coli 45849 (E. coli 45849; 45849, 20 h): 1 mg/L; MIC K. Pneumonia 123132 (K. Pneumonia 123132; 20 h): 8 mg/L; MIC R. radiobatter ATCC 15955 ([3]; ATCC 15955, 20 h): <0.16 mg/L; MIC M. luteus ATCC 10240 (M. luteus ATCC 10240; 1% TSB, 37° C., 20 hrs): 1.95 mg/L; MIC E. coli 1103 (E. coli 1103; 1% TSB, 37° C., 20 hrs): 3.9 mg/L; MIC K. pneumonia 681 (K. pneumonia 681; 1% TSB, 37° C., 20 hrs): 3.9 mg/L; MIC Mycobacterium vaccae (Mycobacterium vaccae; 1% TSB, 37° C., 20 hrs): 125 mg/L; MIC B. subtilis 347 (B. subtilis 347; 1% TSB, 37° C., 20 hrs): >125 mg/L"
CC[C@H](C)[C@H](NC(=O)[C@H](Cc1ccc(O)cc1)NC(=O)[C@@H](NC(=O)[C@@H]1CCCN1C(=O)[C@H](CCCNC(=N)N)NC(=O)[C@H](CC(N)=O)NC(=O)[C@H](CC(N)=O)NC(=O)CN)C(C)C)C(=O)N1CCC[C@H]1C(=O)N[C@@H](CCCNC(=N)N)C(=O)N1C[C@H](O)C[C@H]1C(=O)N[C@@H](CCCNC(=N)N)C(=O)N1CCC[C@H]1C(=O)N1CCC[C@H]1C(=O)N[C@@H](Cc1c[nH]cn1)C(=O)N1CCC[C@H]1C(=O)N[C@@H](CCCNC(=N)N)C(=O)N[C@@H](CC(C)C)C(N)=O [compound 20] (H-GNNRPVYIPR[Hyp]RPPHPRL-NH2),1 mg/L,<0.5 mg/L,32 mg/L,4 mg/L,8 mg/L,0.33 mg/L,0.49 mg/L,1.95 to 3.91 mg/L,1.95 mg/L,3.9 mg/L,3.9 mg/L,125 mg/L,>125 mg/L,
Ac-GNNRPVYIPRPRPPHPRL-NH2 [compound 67],,,,,,,3.91 mg/L,3.9 mg/L,1.95 mg/L,3.9 mg/L,3.9 mg/L,125 mg/L,125 mg/L,
H-GNNKPVYIPRPRPPHPRLV-NH2 [compound 68],,,,,,,7.81 mg/L,7.81 mg/L,0.24 mg/L,3.9 mg/L,31.25 mg/L,125 mg/L,>125 mg/L,
H-GNNRPVYIPRPRPPHPRL-NH2 [compound 66],,,,,,,1.95 mg/L,1.95 mg/L,1.95 mg/L,3.9 mg/L,3.9 mg/L,125 mg/L,62.5 mg/L,
